We go through six molecules from patent publication US8575091B1, “Amylin analogues and pharmaceutical compositions thereof” (Novo Nordisk A/S, priority 2012, dated 2013).

This assay concerns the target T1, human amylin receptor (amylin 3(a) receptor: human calcitonin receptor + RAMP-3) (Homo sapiens, UniProt O60896+P30988).
T1 construct: expressed in transfected cells
T1 sequence (P30988 25-474): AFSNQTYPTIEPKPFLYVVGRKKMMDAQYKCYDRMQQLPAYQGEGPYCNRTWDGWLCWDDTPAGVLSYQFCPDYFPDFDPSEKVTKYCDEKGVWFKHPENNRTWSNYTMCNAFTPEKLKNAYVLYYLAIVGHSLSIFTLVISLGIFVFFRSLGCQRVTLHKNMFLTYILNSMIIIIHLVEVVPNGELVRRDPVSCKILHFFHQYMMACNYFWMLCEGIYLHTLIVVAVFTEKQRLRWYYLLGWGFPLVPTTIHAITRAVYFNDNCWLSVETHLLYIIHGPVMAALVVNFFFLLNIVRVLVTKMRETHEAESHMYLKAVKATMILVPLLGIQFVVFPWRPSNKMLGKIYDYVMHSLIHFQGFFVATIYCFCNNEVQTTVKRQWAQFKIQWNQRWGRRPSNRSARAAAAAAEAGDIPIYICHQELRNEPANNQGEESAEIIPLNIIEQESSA
T1 sequence (O60896 24-148 partner): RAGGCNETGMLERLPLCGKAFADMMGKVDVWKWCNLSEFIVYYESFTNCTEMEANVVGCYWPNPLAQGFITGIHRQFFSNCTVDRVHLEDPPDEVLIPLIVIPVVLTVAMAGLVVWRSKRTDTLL
As to the kind of experiment: Assay (II)a functional assay, human amylin receptor (CRE luciferase, BHK cells). It counts as cell-based.

[1] abbreviates: Table 6, human functional selectivity (hCTR EC50 / hAmylin-R EC50).
The mark [2] stands for this setting: Table 6a, human functional selectivity (hCTR EC50 / hAmylin-R EC50), at least 5.
[3] abbreviates: Table 6j, hCTR funct. EC50 / hAmylin-R funct. EC50.
[4] abbreviates: Table 6k, hCTR funct. EC50 / hAmylin-R funct. EC50.
Setting [5] is: Table 6i, hCTR funct. EC50 / hAmylin-R funct. EC50.

The structures appear in SMILES notation. Numbered stars: 1 amine (or outer) side, 2 acyl side, 3 side chain; on linkers, the order of the positions; unused ones are H or OH. Bridge positions count the residues as written; N and C are the ends. Side chains are listed from the residue outwards. Peptide text beside a SMILES is read from it. * marks the point of attachment. C20 diacid = O=C(O)CCCCCCCCCCCCCCCCCCC(=O)*; γGlu = O=C(O)[C@H](CCC(=O)[*:2])N[*:1]; AEEA = NCCOCCOCC(=O)O

In the case of `CC[C@H](C)[C@H](NC(=O)[C@H](C)NC(=O)CNC(=O)[C@H](Cc1ccccc1)NC(=O)[C@H](CC(N)=O)NC(=O)[C@@H]1CCCN1C(=O)[C@H](CO)NC(=O)[C@H](CO)NC(=O)[C@H](Cc1c[nH]cn1)NC(=O)[C@H](CCCNC(=N)N)NC(=O)[C@H](CC(C)C)NC(=O)[C@H](Cc1ccccc1)NC(=O)[C@H](CC(N)=O)NC(=O)[C@H](C)NC(=O)[C@H](CC(C)C)NC(=O)[C@H](CCCNC(=N)N)NC(=O)[C@H](CCC(N)=O)NC(=O)[C@@H](NC(=O)[C@H](C)NC(=O)[C@@H]1CSSC[C@H](NC(=O)[C@@H](N)CCCCNC(=O)COCCOCCNC(=O)CC[C@H](NC(=O)CCCCCCCCCCCCCCCCCCC(=O)O)C(=O)O)C(=O)N[C@@H](CC(N)=O)C(=O)N[C@@H]([C@@H](C)O)C(=O)N[C@@H](C)C(=O)N[C@@H]([C@@H](C)O)C(=O)N1)[C@@H](C)O)C(=O)N1CCC[C@H]1C(=O)N[C@@H](CO)C(=O)N1CCC[C@H]1C(=O)N[C@H](C(=O)N1CCC[C@H]1C(=O)N[C@H](C(=O)NCC(=O)N[C@@H](CO)C(=O)N[C@@H](CC(N)=O)C(=O)N[C@H](C(=O)N[C@@H](Cc1ccc(O)cc1)C(N)=O)[C@@H](C)O)C(C)C)[C@@H](C)O` [Example 54] (H-K([AEEA-γGlu-C20 diacid])CNTATCATQRLANFLRHSSPNFGAIPSPTPVGSNTY-NH2; disulfide 2-7; N-terminus assumed), the “Ratio hCT/hAmylin funct.” value is 9.6 under setting [1], 9.6 under setting [2], 9.6 under setting [3] and 9.6 under setting [4].
For `CC[C@H](C)[C@H](NC(=O)[C@H](C)NC(=O)CNC(=O)[C@H](Cc1ccccc1)NC(=O)[C@H](CC(N)=O)NC(=O)[C@@H]1CCCN1C(=O)[C@H](CO)NC(=O)[C@H](CO)NC(=O)[C@H](Cc1c[nH]cn1)NC(=O)[C@H](CCCNC(=N)N)NC(=O)[C@H](CC(C)C)NC(=O)[C@H](Cc1ccccc1)NC(=O)[C@H](CCC(=O)O)NC(=O)[C@H](C)NC(=O)[C@H](CC(C)C)NC(=O)[C@H](CCCNC(=N)N)NC(=O)[C@H](CCC(N)=O)NC(=O)[C@@H](NC(=O)[C@H](C)NC(=O)[C@@H]1CSSC[C@H](NC(=O)[C@@H](N)CCCCNC(=O)CC[C@H](NC(=O)CC[C@H](NC(=O)CCCCCCCCCCCCCCCCCCC(=O)O)C(=O)O)C(=O)O)C(=O)N[C@@H](CC(N)=O)C(=O)N[C@@H]([C@@H](C)O)C(=O)N[C@@H](C)C(=O)N[C@@H]([C@@H](C)O)C(=O)N1)[C@@H](C)O)C(=O)N1CCC[C@H]1C(=O)N[C@@H](CO)C(=O)N[C@@H](CO)C(=O)N[C@H](C(=O)N[C@@H](CC(N)=O)C(=O)N[C@H](C(=O)NCC(=O)N[C@@H](Cc1c[nH]cn1)C(=O)N[C@@H](CC(N)=O)C(=O)N[C@H](C(=O)N[C@@H](Cc1ccc(O)cc1)C(N)=O)[C@@H](C)O)C(C)C)[C@@H](C)O` [Example 87] (H-K([γGlu-γGlu-C20 diacid])CNTATCATQRLAEFLRHSSPNFGAIPSSTNVGHNTY-NH2; disulfide 2-7), the “Ratio hCT/hAmylin funct.” value is, setting by setting: under setting [1], 3.8; under setting [5], 3.8; under setting [3], 3.8.
`CC[C@H](C)[C@H](NC(=O)[C@H](C)NC(=O)CNC(=O)[C@H](Cc1ccccc1)NC(=O)[C@H](CC(N)=O)NC(=O)[C@@H]1CCCN1C(=O)[C@H](CO)NC(=O)[C@H](CO)NC(=O)[C@H](Cc1c[nH]cn1)NC(=O)[C@H](CCCNC(=N)N)NC(=O)[C@H](CC(C)C)NC(=O)[C@H](Cc1ccccc1)NC(=O)[C@H](C)NC(=O)[C@H](C)NC(=O)[C@H](CC(C)C)NC(=O)[C@H](CCCNC(=N)N)NC(=O)[C@H](CCC(N)=O)NC(=O)[C@@H](NC(=O)[C@H](C)NC(=O)[C@@H]1CSSC[C@H](NC(=O)[C@@H](N)CCCCNC(=O)CC[C@H](NC(=O)CCCCCCCCCCCCCCCCCCC(=O)O)C(=O)O)C(=O)N[C@@H](CC(N)=O)C(=O)N[C@@H]([C@@H](C)O)C(=O)N[C@@H](C)C(=O)N[C@@H]([C@@H](C)O)C(=O)N1)[C@@H](C)O)C(=O)N1CCC[C@H]1C(=O)N[C@@H](CO)C(=O)N[C@@H](CO)C(=O)N[C@H](C(=O)N[C@@H](CC(N)=O)C(=O)N[C@H](C(=O)NCC(=O)N1CCC[C@H]1C(=O)N[C@@H](CC(N)=O)C(=O)N[C@H](C(=O)N[C@@H](Cc1ccc(O)cc1)C(N)=O)[C@@H](C)O)C(C)C)[C@@H](C)O` [Example 94] (H-K([γGlu-C20 diacid])CNTATCATQRLAAFLRHSSPNFGAIPSSTNVGPNTY-NH2; disulfide 2-7; N-terminus assumed): the “Ratio hCT/hAmylin funct.” value under setting [1] was 4.5.
As to `CC[C@H](C)[C@H](NC(=O)[C@H](C)NC(=O)CNC(=O)[C@H](Cc1ccccc1)NC(=O)[C@H](CC(N)=O)NC(=O)[C@@H]1CCCN1C(=O)[C@H](CO)NC(=O)[C@H](CO)NC(=O)[C@H](Cc1c[nH]cn1)NC(=O)[C@H](CCCNC(=N)N)NC(=O)[C@H](CC(C)C)NC(=O)[C@H](Cc1ccccc1)NC(=O)[C@H](CC(N)=O)NC(=O)[C@H](C)NC(=O)[C@H](CC(C)C)NC(=O)[C@H](CCCNC(=N)N)NC(=O)[C@H](CCC(N)=O)NC(=O)[C@@H](NC(=O)[C@H](C)NC(=O)[C@@H]1CSSC[C@H](NC(=O)[C@@H](N)CCCCNC(=O)COCCOCCNC(=O)COCCOCCNC(=O)CC[C@H](NC(=O)CCCCCCCCCCCCCCCCCCC(=O)O)C(=O)O)C(=O)N[C@@H](CC(N)=O)C(=O)N[C@@H]([C@@H](C)O)C(=O)N[C@@H](C)C(=O)N[C@@H]([C@@H](C)O)C(=O)N1)[C@@H](C)O)C(=O)N1CCC[C@H]1C(=O)N[C@@H](CO)C(=O)N[C@@H](CO)C(=O)N[C@H](C(=O)N[C@@H](CC(N)=O)C(=O)N[C@H](C(=O)NCC(=O)N[C@@H](CCCNC(=N)N)C(=O)N[C@@H](CC(N)=O)C(=O)N[C@H](C(=O)N[C@@H](Cc1ccc(O)cc1)C(N)=O)[C@@H](C)O)C(C)C)[C@@H](C)O` [Example 95] (H-K([AEEA-AEEA-γGlu-C20 diacid])CNTATCATQRLANFLRHSSPNFGAIPSSTNVGRNTY-NH2; disulfide 2-7 (inferred); N-terminus and C-terminus assumed), the “Ratio hCT/hAmylin funct.” value was determined as 33.0 under setting [1], 33.0 under setting [2], 33.0 under setting [3] and 33.0 under setting [4].
With `CC[C@H](C)[C@H](NC(=O)[C@H](C)NC(=O)CNC(=O)[C@H](Cc1ccccc1)NC(=O)[C@H](CC(N)=O)NC(=O)[C@@H]1CCCN1C(=O)[C@H](CO)NC(=O)[C@H](CO)NC(=O)[C@H](Cc1c[nH]cn1)NC(=O)[C@H](CCCNC(=N)N)NC(=O)[C@H](CC(C)C)NC(=O)[C@H](Cc1ccccc1)NC(=O)[C@H](C)NC(=O)[C@H](C)NC(=O)[C@H](CC(C)C)NC(=O)[C@H](CCCNC(=N)N)NC(=O)[C@H](CCC(N)=O)NC(=O)[C@@H](NC(=O)[C@H](C)NC(=O)[C@@H]1CSSC[C@H](NC(=O)[C@H](CCCNC(=N)N)NC(=O)CNC(=O)CC[C@H](NC(=O)CCCCCCCCCCCCCCCCCCC(=O)O)C(=O)O)C(=O)N[C@@H](CC(N)=O)C(=O)N[C@@H]([C@@H](C)O)C(=O)N[C@@H](C)C(=O)N[C@@H]([C@@H](C)O)C(=O)N1)[C@@H](C)O)C(=O)N1CCC[C@H]1C(=O)N[C@@H](CO)C(=O)N[C@@H](CO)C(=O)N[C@H](C(=O)N[C@@H](CC(N)=O)C(=O)N[C@H](C(=O)NCC(=O)N[C@@H](Cc1c[nH]cn1)C(=O)N[C@@H](CC(N)=O)C(=O)N[C@H](C(=O)N[C@@H](Cc1ccc(O)cc1)C(N)=O)[C@@H](C)O)C(C)C)[C@@H](C)O` [Example 101] ({C20 diacid-γGlu}-GRCNTATCATQRLAAFLRHSSPNFGAIPSSTNVGHNTY-NH2; disulfide 3-8 (inferred); C-terminus assumed), under setting [1], the “Ratio hCT/hAmylin funct.” value was 4.9.
Regarding `CC[C@H](C)[C@H](NC(=O)[C@H](C)NC(=O)CNC(=O)[C@H](Cc1ccccc1)NC(=O)[C@H](CC(N)=O)NC(=O)[C@@H]1CCCN1C(=O)[C@H](CO)NC(=O)[C@H](CO)NC(=O)[C@H](Cc1c[nH]cn1)NC(=O)[C@H](CCCNC(=N)N)NC(=O)[C@H](CC(C)C)NC(=O)[C@H](Cc1ccccc1)NC(=O)[C@H](CCC(=O)O)NC(=O)[C@H](C)NC(=O)[C@H](CC(C)C)NC(=O)[C@H](CCCNC(=N)N)NC(=O)[C@H](CCC(N)=O)NC(=O)[C@@H](NC(=O)[C@H](C)NC(=O)[C@@H]1CSSC[C@H](NC(=O)[C@@H](N)CCCCNC(=O)CC[C@H](NC(=O)CCCCCCCCCCCCCCCCCCC(=O)O)C(=O)O)C(=O)N[C@@H](CC(N)=O)C(=O)N[C@@H]([C@@H](C)O)C(=O)N[C@@H](C)C(=O)N[C@@H]([C@@H](C)O)C(=O)N1)[C@@H](C)O)C(=O)N1CCC[C@H]1C(=O)N[C@@H](CO)C(=O)N[C@@H](CO)C(=O)N[C@H](C(=O)N[C@@H](CC(N)=O)C(=O)N[C@H](C(=O)NCC(=O)N[C@@H](Cc1c[nH]cn1)C(=O)N[C@@H](CCC(=O)O)C(=O)N[C@H](C(=O)N[C@@H](Cc1ccc(O)cc1)C(N)=O)[C@@H](C)O)C(C)C)[C@@H](C)O` [Example 107] (H-K([γGlu-C20 diacid])CNTATCATQRLAEFLRHSSPNFGAIPSSTNVGHETY-NH2; disulfide 2-7 (inferred); N-terminus and C-terminus assumed), the “Ratio hCT/hAmylin funct.” value is, setting by setting: under setting [1], 6.3; under setting [2], 6.3; under setting [5], 6.3; under setting [3], 6.3; under setting [4], 6.3.
